# Values quoted from earlier work as cited in patent publication US20080262249A1, “Psorospermin and Analogues” (priority 2004, published 2008).
# Assays:
# [1] = biological target: T1, topoisomerase II-DNA complex (Drosophila melanogaster, UniProt P15348)
# T1 sequence (P15348 1-1447): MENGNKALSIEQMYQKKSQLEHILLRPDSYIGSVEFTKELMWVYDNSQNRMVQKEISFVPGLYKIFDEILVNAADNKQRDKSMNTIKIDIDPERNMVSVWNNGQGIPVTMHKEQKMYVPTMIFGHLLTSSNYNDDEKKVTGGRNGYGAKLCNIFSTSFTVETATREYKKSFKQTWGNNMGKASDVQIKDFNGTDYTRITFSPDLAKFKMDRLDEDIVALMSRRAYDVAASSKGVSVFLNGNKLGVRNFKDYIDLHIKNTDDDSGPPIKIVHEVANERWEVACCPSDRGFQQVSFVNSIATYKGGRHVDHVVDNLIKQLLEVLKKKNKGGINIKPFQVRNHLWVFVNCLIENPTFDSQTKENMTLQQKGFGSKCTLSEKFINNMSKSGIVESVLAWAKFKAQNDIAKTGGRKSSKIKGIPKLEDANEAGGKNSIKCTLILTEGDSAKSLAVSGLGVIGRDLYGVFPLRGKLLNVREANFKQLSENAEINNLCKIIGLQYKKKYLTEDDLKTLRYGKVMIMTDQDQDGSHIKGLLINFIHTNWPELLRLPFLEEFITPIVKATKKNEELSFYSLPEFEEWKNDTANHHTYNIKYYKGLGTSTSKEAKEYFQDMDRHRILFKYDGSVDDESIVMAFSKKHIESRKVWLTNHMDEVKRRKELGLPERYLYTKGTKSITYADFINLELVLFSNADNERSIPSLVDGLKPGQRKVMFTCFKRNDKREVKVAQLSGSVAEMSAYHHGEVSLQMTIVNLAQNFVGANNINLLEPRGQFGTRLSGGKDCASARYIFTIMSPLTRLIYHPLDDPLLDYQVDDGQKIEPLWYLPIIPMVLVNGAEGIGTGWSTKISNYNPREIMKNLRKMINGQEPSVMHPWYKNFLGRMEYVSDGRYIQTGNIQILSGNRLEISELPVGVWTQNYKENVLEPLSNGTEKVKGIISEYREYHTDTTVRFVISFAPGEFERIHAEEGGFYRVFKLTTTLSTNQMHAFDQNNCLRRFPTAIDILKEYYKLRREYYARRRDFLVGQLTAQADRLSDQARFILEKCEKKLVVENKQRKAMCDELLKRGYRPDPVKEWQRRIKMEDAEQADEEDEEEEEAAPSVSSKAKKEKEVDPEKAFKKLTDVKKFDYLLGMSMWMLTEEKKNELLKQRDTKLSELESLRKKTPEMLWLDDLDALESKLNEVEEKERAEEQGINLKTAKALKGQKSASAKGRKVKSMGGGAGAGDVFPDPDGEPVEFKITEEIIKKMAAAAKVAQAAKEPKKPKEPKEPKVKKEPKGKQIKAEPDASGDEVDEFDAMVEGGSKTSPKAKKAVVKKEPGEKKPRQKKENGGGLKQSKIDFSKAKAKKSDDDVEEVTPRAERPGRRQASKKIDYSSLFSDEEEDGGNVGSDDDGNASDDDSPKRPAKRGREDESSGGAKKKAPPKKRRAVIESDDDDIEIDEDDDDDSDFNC
# [2] = biological target: T1, topoisomerase II-DNA complex; remark: listed apart in the source
Compound,effect of increasing topoisomerase II concentration on DNA alkylation ([1]; increasing topoisomerase II concentration),enhancement of psorospermin alkylation at site A by topoisomerase II ([1]; site A) [fold],"enhancement of psorospermin alkylation at site B by topoisomerase II ([1]; site B, guanine at +4′ position) [fold]",reversibility of stimulated topoisomerase II-induced DNA cleavage ([2]; addition of excess salt),"psorospermin-induced DNA cleavage by topoisomerase II, maximum ([2]; site B, 10 μM drug concentration) [fold]"
"C/C=C\C1OC1(C)c1cc(=O)c2c(C)cc3c(c2o1)C(=O)c1c(O)c([C@H]2C[C@](C)(N(C)C)[C@@H](OC(C)=O)[C@@H](C)O2)cc([C@@H]2C[C@H](N(C)C)[C@@H](O)[C@@H](C)O2)c1C3=O (some centres unmarked) [pluramycin, reference compound]",inhibited,–,–,–,–
COc1cc2c(c3oc4c(O)cccc4c(=O)c13)C[C@H]([C@@]1(C)CO1)O2 [psorospermin],–,3,25,slowly reversed,3
